From publication PMC9227305, “Photoinduced Synthesis of Methylated Marine Cyclopeptide Galaxamide Analogs with Isoindolinone as Anticancer Agents” (Marine Drugs, 2022)
*1 amine or outer side, *2 acyl side, *3 side chain or, on linkers, in order; H or OH if unused. Where a SMILES comes first, the peptide text is derived from it. [ ]: non-standard residue; d: D form. X1 = O=C1c2ccccc2[C@@](O)(CN(Cc2ccccc2)[*:1])N1CC(=O)[*:2]; NMeL = CN[C@@H](CC(C)C)C(=O)O

Tested on: lactate dehydrogenase in HepG-2 cells
Assay: Lactate dehydrogenase (LDH) activity assay in cells
Format: cell-based, human
Details: 48 h
From the text: The accumulation of lactate dehydrogenase can produce lactate metabolites and cause the deterioration of tumor cells. By inhibiting lactate dehydrogenase activity, the energy supply of tumor cells would be blocked, thus reducing their metastasis and progression. Therefore, in this paper, we also investigated the inhibitory activity of compound 8 on lactate dehydrogenase in HepG-2 cells. It has been known that LDH could catalyze lactic acid to generate pyruvate, which could react with 2,4-dinitrophenylhydrazine (DNPH) to form dinitrophenyl-pyruvate and form a reddish-brown product after reacting with an alkaline solution. The obtained product can be assessed by visible spectrophotometry. […]
Lactate dehydrogenase activity of HepG-2 cells treated with compound 8 was examined by using the Lactate Dehydrogenase Kit (Beijing Solarbio Science & Technology, Beijing, China) according to the instructions for use. […] Then the other reagents in the Lactate Dehydrogenase Kit (Beyotime Biotechnology, Shanghai, China) were added according to the instructions, and the absorption of the mixture was measured by the spectrophotometer. […] The absorption of the standard solution at 450 nm was measured to plot the standard curve. […]

## CC(C)C[C@@H]1NC(=O)CN2C(=O)c3ccccc3[C@@]2(O)CN(Cc2ccccc2)C(=O)[C@H](CC(C)C)NC(=O)[C@H](CC(C)C)N(C)C(=O)[C@H](CC(C)C)NC(=O)[C@H](CC(C)C)NC1=O [Compound 8, 3-Hydroxy-isoindolinone-cyclo-Gly-Leu-N-Me-Leu-Leu-Leu-Leu] (cyclo(LL[NMeL]L[X1]L))
  effect on lactate dehydrogenase activity: significant decrease
